The results in this text go back to patent US10239887B2, “Positive allosteric modulators of the muscarinic acetylcholine receptor M4” (Vanderbilt University, priority 2016, dated 2019).

Structures can show the parent of a compound that is named as a salt. Some results are limits rather than exact numbers.

The target of this test is T1, human mAChR M4 (Homo sapiens, UniProt P08173).
T1 sequence (P08173 1-479): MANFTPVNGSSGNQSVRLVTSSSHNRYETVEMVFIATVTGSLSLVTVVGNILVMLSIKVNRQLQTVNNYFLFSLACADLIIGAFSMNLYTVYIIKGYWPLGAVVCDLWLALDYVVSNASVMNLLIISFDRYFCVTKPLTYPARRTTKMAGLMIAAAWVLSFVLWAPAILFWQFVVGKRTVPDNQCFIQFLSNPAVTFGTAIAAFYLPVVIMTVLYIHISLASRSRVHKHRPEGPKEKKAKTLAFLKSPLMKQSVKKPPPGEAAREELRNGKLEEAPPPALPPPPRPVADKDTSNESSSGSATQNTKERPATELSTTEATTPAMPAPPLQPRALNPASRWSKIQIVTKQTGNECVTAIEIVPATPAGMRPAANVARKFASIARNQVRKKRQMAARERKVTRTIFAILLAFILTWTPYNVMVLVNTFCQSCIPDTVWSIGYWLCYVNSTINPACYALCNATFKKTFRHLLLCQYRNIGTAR
The test can be described thus: mAChR M4 cell-based functional assay (calcium flux), human M4. The following applies: Table 10; for EC50: Human M4 EC50 (nM); for Emax: % ACh maximum at 30 μM. Background: A change in cytosolic calcium serves as a functional read-out for many receptors and channels.

Setting [1] is: calcium flux, PAM activity with EC20 acetylcholine.

`COc1ccc(C2CC2Nc2ncnc3c2sc2ncc(Cl)c(C)c23)cc1` (centres unmarked) [Compound 236, 8-chloro-N-[2-(4-methoxyphenyl)cyclopropyl]-9-methyl-pyrido [3′,2′:4,5]thieno[3,2-d] pyrimidin-4-amine dihydrochloride]: the Emax (usually the size of the effect at its maximum, as opposed to the concentration needed) turned out to be 61.2%. Besides, the EC50 (as a rule, the concentration giving half of the maximal effect) under setting [1] is 5660 nM. For `Cc1c(Cl)cnc2sc3c(NCc4ccc(S(C)(=O)=O)cc4)ncnc3c12` [Compound 237, 8-chloro-9-methyl-N-[(4-methylsulfonylphenyl)methyl]pyrido [3′,2′:4,5]thieno[3,2-d] pyrimidin-4-amine dihydrochloride], the Emax amounted to 54.5%. Further, the EC50 under setting [1] came out at 1320 nM. For `Cc1ncc(CNc2ncnc3c2sc2ncc(Cl)c(C)c23)cn1` [Compound 238, 8-chloro-9-methyl-N-[(2-methylpyrimidin-5-yl)methyl]pyrido [3′,2′:4,5]thieno[3,2-d] pyrimidin-4-amine dihydrochloride], the Emax is 61%. Also, under setting [1], the EC50 turned out to be 382 nM. In the case of `Cc1nc2sc3c(NC4CN(c5ccnc(C6(O)CCC6)c5)C4)ncnc3c2c(C)c1Cl` [Compound 239, 1-[4-[3-[(8-chloro-7,9-dimethyl-pyrido [3′,2′:4,5]thieno[3,2-d]pyrimidin-4-yl)amino]azetidin-1-yl]-2-pyridyl]cyclobutanol], the Emax is 72.3%. Further, the EC50 under setting [1] is 1920 nM. In the case of `Cc1nc2oc3c(NC4CN(c5ncc(C(F)(F)F)cn5)C4)ncnc3c2c(C)c1Cl` [Compound 241, 8-chloro-7,9-dimethyl-N-[1-[5-(trifluoromethyl)pyrimidin-2-yl]yl]azetidin-3-yl]pyrido [3′,2′:4,5]furo[3,2-d] pyrimidin-4-amine hydrochloride], the Emax is 39.7%. For the same compound, the EC50 under setting [1] came to 1010 nM.

For `Cc1nc2oc3c(NC4CC4c4ccc(F)c(F)c4)ncnc3c2c(C)c1Cl` (centres unmarked) [Compound 247, 8-chloro-N-[2-(3,4-difluorophenyl)cyclopropyl]-7,9-dimethyl-pyrido [3′,2′:4,5]furo[3,2-d] pyrimidin-4-amine hydrochloride], the Emax was 70%. For the same compound, under setting [1], the EC50 came to 7840 nM.

As to `Cc1nc2oc3c(NCc4ccc(S(C)(=O)=O)cc4)ncnc3c2c(C)c1Cl` [Compound 248, 8-chloro-7,9-dimethyl-N-[(4-methylsulfonylphenyl)methyl]pyrido[3′,2′:4,5] furo[3,2-d]pyrimidin-4-amine hydrochloride], the maximal response (Emax) is 45.5%. Moreover, under setting [1], the EC50 was 1250 nM. On to `Cc1nc2oc3c(NCc4ccc(C(C)(C)O)cc4)ncnc3c2c(C)c1Cl` [Compound 251, 2-[4-[[(8-chloro-7,9-dimethyl-pyrido [3′,2′:4,5]furo[3,2-d]pyrimidin-4-yl)amino]methyl]phenyl]propan-2-ol], for which the Emax amounted to 61.8%. Moreover, the EC50 under setting [1] was determined as 1160 nM. Consider `COc1ccc(CNc2ncnc3c2oc2nc(C)c(Cl)c(C)c23)cc1F` [Compound 253, 8-chloro-N-[(3-fluoro-4-methoxy-phenyl)methyl]-7,9-dimethyl-pyrido [3′,2′:4,5]furo[3,2-d] pyrimidin-4-amine hydrochloride], for which the Emax worked out at 41.9%. Besides, the EC50 (unit μM (bounds)) is above 10000 nM. For the compound `Cc1nc2sc3c(N4CCC(F)(F)C4)ncnc3c2c(C)c1Cl` [Compound 255, 8-chloro-4-(3,3-difluoropyrrolidin-1-yl)-7,9-dimethyl-pyrido [3′,2′:4,5]thieno[3,2-d] pyrimidine hydrochloride], the Emax came to 73%. Besides, the EC50 under setting [1] was 2340 nM.

As for `Cc1nc2sc3c(N4CC5CC5C4)ncnc3c2c(C)c1Cl` (centres unmarked) [Compound 257, 4-(3-azabicyclo[3.1.0]hexan-3-yl)-8-chloro-7,9-dimethyl-pyrido [3′,2′:4,5]thieno[3,2-d] pyrimidine hydrochloride], the Emax amounted to 64.4%. Besides, the EC50 under setting [1] amounted to 1010 nM. On to `Cc1nc2sc3c(N4CCC(F)C4)ncnc3c2c(C)c1Cl` (centres unmarked) [Compound 258, 8-chloro-4-(3-fluoropyrrolidin-1-yl)-7,9-dimethyl-pyrido [3′,2′:4,5]thieno[3,2-d] pyrimidine hydrochloride], for which the Emax stood at 64.9%. Besides, the EC50 under setting [1] came out at 1510 nM. `Cc1nc2sc3c(N4CC5(COC5)C4)ncnc3c2c(C)c1Cl` [Compound 260, 6-(8-chloro-7,9-dimethyl-pyrido [3′,2′:4,5]thieno[3,2-d]pyrimidin-4-yl)-2-oxa-6-azaspiro[3.3]heptane hydrochloride]: the Emax came to 70.9%. For `Cc1nc2sc3c(N4CC(F)(F)C4)ncnc3c2c(C)c1Cl` [Compound 261, 8-chloro-4-(3,3-difluoroazetidin-1-yl)-7,9-dimethyl-pyrido [3′,2′:4,5]thieno[3,2-d] pyrimidine hydrochloride], the Emax worked out at 76.2%. Further, the EC50 under setting [1] was 3920 nM. Consider `Cc1nc2sc3c(N4CC(c5ccncc5)C4)ncnc3c2c(C)c1Cl` [Compound 262, 8-chloro-7,9-dimethyl-4-[3-(4-pyridyl)azetidin-1-yl]pyrido[3′,2′:4,5] thieno[3,2-d]pyrimidine dihydrochloride], for which the Emax was found to be 83.8%. The EC50 under setting [1] turned out to be 1520 nM.

As to `Cc1nc2sc3c(NC4CN(c5ncc(F)cn5)C4)ncnc3c2c(C)c1Cl` [Compound 263, 8-chloro-N-[1-(5-fluoropyrimidin-2-yl)azetidin-3-yl]-7,9-dimethyl-pyrido[3′,2′:4,5] thieno[3,2-d]pyrimidin-4-amine hydrochloride], the Emax amounted to 72.6%. The EC50 under setting [1] came out at 9520 nM. On to `Cc1nc2sc3c(NC4CCC4)ncnc3c2c(C)c1Cl` [Compound 266, 8-chloro-N-cyclobutyl-7,9-dimethyl-pyrido [3′,2′:4,5]thieno[3,2-d] pyrimidin-4-amine hydrochloride], for which the Emax came to 55.5%. In addition, the EC50 under setting [1] amounted to 1660 nM. With `COc1ccc(CNc2ncnc3c2sc2nc(C)c(Cl)c(C)c23)cc1OC` [Compound 267, 8-chloro-N-[(3,4-dimethoxyphenyl)methyl]-7,9-dimethyl-pyrido[3′,2′:4,5]thieno [3,2-d]pyrimidin-4-amine hydrochloride], the Emax amounted to 33.6%. Moreover, the EC50 (unit μM (bounds)) was above 10000 nM. For `Cc1nc2sc3c(NCc4ccc(-n5ccnc5)cc4)ncnc3c2c(C)c1Cl` [Compound 268, 8-chloro-N-[(4-imidazol-1-ylphenyl)methyl]-7,9-dimethyl-pyrido[3′,2′:4,5] thieno[3,2-d]pyrimidin-4-amine dihydrochloride], the Emax amounted to 31.3%. Besides, the EC50 under setting [1] worked out at 3170 nM. Turning to `Cc1nc2sc3c(NCc4ccc(CN5CCOCC5)cc4)ncnc3c2c(C)c1Cl` [Compound 269, 8-chloro-7,9-dimethyl-N-[[4-(morpholinomethyl)phenyl]methyl]pyrido [3′,2′:4,5]thieno[3,2-d] pyrimidin-4-amine dihydrochloride], the Emax amounted to 71.2%. Also, the EC50 under setting [1] turned out to be 3570 nM. `Cc1nc2sc3c(NCc4ccc5c(c4)CC(C)(C)O5)ncnc3c2c(C)c1Cl` [Compound 270, 8-chloro-N-[(2,2-dimethyl-3H-benzofuran-5-yl)methyl]-7,9-dimethyl-pyrido[3′,2′:4,5]thieno [3,2-d]pyrimidin-4-amine dihydrochloride]: the Emax was 22%. Moreover, the EC50 (unit μM (bounds)) is above 10000 nM. In the case of `Cc1ncc(CNc2ncnc3c2sc2nc(C)c(Cl)c(C)c23)cn1` [Compound 271, 8-chloro-7,9-dimethyl-N-[(2-methylpyrimidin-5-yl)methyl]pyrido [3′,2′:4,5]thieno[3,2-d] pyrimidin-4-amine dihydrochloride], the Emax came to 74.7%. Moreover, the EC50 (unit μM (bounds)) is above 10000 nM.

For `Cc1nc2sc3c(NC4CN(c5ncc(C(F)(F)F)cn5)C4)ncnc3c2c(C)c1Cl` [Compound 272, 8-chloro-7,9-dimethyl-N-[1-[5-(trifluoromethyl)pyrimidin-2-yl]azetidin-3-yl]pyrido[3′,2′:4,5] hieno[3,2-d]pyrimidin-4-amine dihydrochloride], the Emax is 60.6%. Moreover, the EC50 under setting [1] stood at 3620 nM. On to `Cc1nc2sc3c(NCC4CCOC4)ncnc3c2c(C)c1Cl` (centres unmarked) [Compound 273, 8-chloro-7,9-dimethyl-N-(tetrahydrofuran-3-ylmethyl) pyrido[3′,2′:4,5]thieno [3,2-d]pyrimidin-4-amine dihydrochloride], for which the Emax was determined as 59.5%. Further, under setting [1], the EC50 worked out at 1840 nM. In the case of `Cc1nc2sc3c(NCc4ccc(C5(O)CCC5)cc4)ncnc3c2c(C)c1Cl` [Compound 276, 1-[4-[[(8-chloro-7,9-dimethyl-pyrido [3′,2′:4,5]thieno[3,2-d]pyrimidin-4-yl)amino]methyl]phenyl]cyclobutanol], the Emax came out at 45.3%. Where the note is “unit μM (bounds)”, the EC50 is above 10000 nM.

For the compound `Cc1nc2sc3c(NCc4cccc(C5(O)CCC5)c4)ncnc3c2c(C)c1Cl` [Compound 277, 1-[3-[[(8-chloro-7,9-dimethyl-pyrido [3′,2′:4,5]thieno[3,2-d]pyrimidin-4-yl)amino]methyl]phenyl]cyclobutanol], the Emax was determined as 70.5%. For the same compound, the EC50 under setting [1] was found to be 2320 nM. `Cc1nc2sc3c(NCc4ccc(C(C)(C)O)c(F)c4)ncnc3c2c(C)c1Cl` [Compound 278, 2-[4-[[(8-chloro-7,9-dimethyl-pyrido [3′,2′:4,5]thieno[3,2-d]pyrimidin-4-yl)amino]methyl]-2-fluoro-phenyl] propan-2-ol]: the Emax was determined as 37%. Also, the EC50 under setting [1] was 3800 nM.
